Experimental data reported in patent US5387518A, “Alkaline protease having stability in solution with anionic surfactant, method for producing the same, use thereof and microorganism producing the same” (priority 1991, dated 1995).
Like-named read-outs stand apart in the source and are kept apart here.

System: alkaline protease API-25 produced by Bacillus sp. SD523 (Bacillus firmus, FERM BP-3774)
Format: biochemical
Description: To 500 μl of a 50 mM Atkins-Pantin phosphate buffer solution (pH 10) is added 50 μl of an enzyme solution diluted appropriately, and the resulting mixture is preincubated at 30° C. for 3 to 5 minutes. Then, 500 μl of a 2% Hammerstein casein solution (pH 10) is added to the solution, and after 10 minutes 2 ml of TCA solution (0.132M TCA, adjusted to pH 4 with an acetate buffer solution) is added thereto to stop the reaction. After leaving it to stand at 30° C. for 10~15 minutes, the mixture is filtered using No. 2 filter paper (produced by Toyo Filter Paper Co., Ltd.). To 1 ml of the filtrate solution are added 5 ml of 0.4M sodium carbonate and 1 ml of 6-fold diluted phenol reagent. After leaving the mixture to stand at 30° C. for 20 minutes for color development, its optical density is measured at 660 nm.
Influence of various inhibitors against the enzyme of the present invention is examined under the conditions and by the method described below.
Enzyme solutions containing the enzyme of the present invention in a concentration of 20 nkatal/ml are prepared using a 50 mM borate buffer solution (pH 10), respectively. Various inhibitors in concentrations as shown in Table 11 are added to the enzyme solutions, respectively. After incubating the resulting mixtures at 30° C. for 30 minutes, the residual activity of the enzyme in the mixtures is measured. Results obtained are shown in Table 11, in which the activity is expressed in terms of relative activity assuming that the activity in the absence of inhibitors is 100%.

[1] = inhibitor 1 mM, enzyme 20 nkatal/ml in 50 mM borate buffer pH 10, incubated 30° C. for 30 minutes, activity in the absence of inhibitors = 100%
[2] = inhibitor 10 mM, enzyme 20 nkatal/ml in 50 mM borate buffer pH 10, incubated 30° C. for 30 minutes, activity in the absence of inhibitors = 100%

Row | SMILES | Residual Activity (%) (pH 10) | Residual Activity (%) [1] | Residual Activity (%) [2] | Inhibition of the enzyme (in words) (summary of Table 11, reveals that the enzyme is a serine protease)
1 | O=C(O)CN(CCN(CC(=O)O)CC(=O)O)CC(=O)O [EDTA, Ethylenediaminetetraacetic acid] | 104% | – | – | –
2 | O=C(O)c1cc[c]([Hg][Cl])cc1 [PCMB, pChloromercuribenzoic acid] | – | 98% | 90% | –
3 | O=S(=O)(F)Cc1ccccc1 [PMSF, Phenylmethanesulfonyl fluoride] | – | 31% | 0.7% | inhibited by phenylmethanesulfonyl fluoride (PMSF) considerably
